# Measurements: US20240051985A1, “METTL3 MODULATORS” (ACCENT THERAPEUTICS, INC., priority 2020, published 2024)
# Experiments:
# METTL3/METTL14 = METTL3/METTL14 (Homo sapiens, UniProt Q86U44); assay: METTL3-14 standard enzyme assay (3H-SAM flashplate); details: METTL3 biochemical assay
# Method: METTL3-14 Standard Enzyme Assay
# Assays were performed in a 25 μl-volume in 384-well V-bottom polypropylene microplates (Greiner Bio-One, cat. No. 781280) at ambient temperature. Optimized 1× assay buffer was 20 mM HEPES pH 7.5, 50 mM KCl, 250 μM MgCl2, 1 mM DTT, 0.01% Tween, 0.01% BSG, 0.004 U/μl RNAseOUT (cat. No. 10777019, ThermoFisher Scientific, Waltham, MA). For compound screening METTL3/METTL14 (final concentration, f.c.=2.5 nM) was added using a Multidrop Combi (ThermoFisher Scientific, Waltham, MA) and preincubated for 5 min. Reactions were started by adding 3′ biotinylated RNA (UCUGGACUAAA-biotin) (f.c.=100 nM) and 3H-SAM (f.c.=100 nM) substrates. Reactions proceeded for 30 minutes and were quenched with excess non-radioactive SAM (f.c.=15 μM). The reactions were then transferred to streptavidin-coated flashplates and incubated for 2 hours at 25° C. Following two washing cycles with 0.1% Tween-20, the plates were sealed and read on a TopCount (PerkinElmer, Waltham, MA) plate-based scintillation counter. For determination of kinetic parameters, reaction times were optimized so that measurements were taken during the initial velocity phase of the reaction.
# PRMT5-MEP50 = PRMT5-MEP50 (Homo sapiens, UniProt O14744); assay: PRMT5 assay (3H-SAM flashplate); details: PRMT5 biochemical assay
# Method: Assays were performed in a 25 μl-volume in 384-well V-bottom polypropylene microplates (Greiner Bio-One, cat. No. 781280) at ambient temperature. Optimized 1× assay buffer was 20 mM Tris-HCl pH 8.0, 1 mM DTT, […]. For compound screening PRMT5-MEP50 (final concentration, f.c.=2.5 nM) was added using a Multidrop Combi (ThermoFisher Scientific, Waltham, MA) and preincubated for 5 min. Reactions were started by adding 3′ biotinylated histone H4 peptide acetylated on serine 1 (Ac-[…]-Biotin) (f.c.=100 nM) and 3H-SAM (f.c.=250 nM) substrates. Reactions proceeded for 60 minutes and were quenched with excess non-radioactive SAM (f.c.=15 μM). The reactions were then transferred to streptavidin-coated flashplates and incubated for 2 hours at 25° C. Following two washing cycles with 0.1% Tween-20, the plates were sealed and read on a TopCount (PerkinElmer, Waltham, MA) plate-based scintillation counter. For determination of kinetic parameters, reaction times were optimized so that measurements were taken during the initial velocity phase of the reaction.
# Sequence of PRMT5-MEP50 (O14744 whole entry): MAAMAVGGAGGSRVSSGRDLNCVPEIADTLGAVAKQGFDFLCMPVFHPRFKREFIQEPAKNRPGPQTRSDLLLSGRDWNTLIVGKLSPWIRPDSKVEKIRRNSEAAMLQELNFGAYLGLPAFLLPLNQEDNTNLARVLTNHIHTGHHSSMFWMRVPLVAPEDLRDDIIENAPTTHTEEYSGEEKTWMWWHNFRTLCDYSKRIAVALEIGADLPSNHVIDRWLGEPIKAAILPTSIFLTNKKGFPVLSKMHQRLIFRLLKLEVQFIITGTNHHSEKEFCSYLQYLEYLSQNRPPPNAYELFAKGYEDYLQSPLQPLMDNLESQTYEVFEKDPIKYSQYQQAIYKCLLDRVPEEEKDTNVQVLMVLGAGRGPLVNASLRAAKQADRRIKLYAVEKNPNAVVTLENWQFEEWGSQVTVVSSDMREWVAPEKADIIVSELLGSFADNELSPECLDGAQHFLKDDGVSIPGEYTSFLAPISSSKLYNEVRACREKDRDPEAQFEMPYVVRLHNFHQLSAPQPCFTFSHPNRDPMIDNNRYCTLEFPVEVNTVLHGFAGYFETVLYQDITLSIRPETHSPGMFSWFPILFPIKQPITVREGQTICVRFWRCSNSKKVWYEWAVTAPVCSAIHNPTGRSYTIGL
# Sequence of PRMT5-MEP50 (Q9BQA1 whole entry partner): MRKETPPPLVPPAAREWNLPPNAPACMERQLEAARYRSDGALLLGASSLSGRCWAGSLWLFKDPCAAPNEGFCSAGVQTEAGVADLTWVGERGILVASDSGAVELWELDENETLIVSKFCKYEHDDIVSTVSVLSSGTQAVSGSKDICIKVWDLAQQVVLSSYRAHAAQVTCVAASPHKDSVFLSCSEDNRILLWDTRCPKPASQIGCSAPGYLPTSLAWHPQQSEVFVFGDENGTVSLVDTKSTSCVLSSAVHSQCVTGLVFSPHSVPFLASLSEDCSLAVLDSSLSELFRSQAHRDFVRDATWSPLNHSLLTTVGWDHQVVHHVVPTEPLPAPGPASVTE
# Sequence of METTL3/METTL14 (Q86U44 whole entry, species assumed): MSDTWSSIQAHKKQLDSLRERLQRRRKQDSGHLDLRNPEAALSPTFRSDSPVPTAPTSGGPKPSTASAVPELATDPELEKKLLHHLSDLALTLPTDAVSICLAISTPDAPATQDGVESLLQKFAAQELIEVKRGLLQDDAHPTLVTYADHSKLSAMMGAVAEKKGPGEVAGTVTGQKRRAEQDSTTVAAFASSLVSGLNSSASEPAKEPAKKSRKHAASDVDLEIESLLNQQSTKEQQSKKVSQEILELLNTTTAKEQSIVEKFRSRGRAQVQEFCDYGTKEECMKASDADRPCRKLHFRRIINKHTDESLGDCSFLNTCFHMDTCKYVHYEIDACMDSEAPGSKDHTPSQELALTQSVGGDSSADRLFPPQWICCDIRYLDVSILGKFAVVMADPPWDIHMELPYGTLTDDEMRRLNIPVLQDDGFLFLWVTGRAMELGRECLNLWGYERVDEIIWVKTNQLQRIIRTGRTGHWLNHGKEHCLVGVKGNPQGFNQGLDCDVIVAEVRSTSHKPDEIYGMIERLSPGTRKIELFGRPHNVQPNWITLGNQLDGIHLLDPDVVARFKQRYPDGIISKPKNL
# Sequence of METTL3/METTL14 (Q9HCE5 whole entry partner, species assumed): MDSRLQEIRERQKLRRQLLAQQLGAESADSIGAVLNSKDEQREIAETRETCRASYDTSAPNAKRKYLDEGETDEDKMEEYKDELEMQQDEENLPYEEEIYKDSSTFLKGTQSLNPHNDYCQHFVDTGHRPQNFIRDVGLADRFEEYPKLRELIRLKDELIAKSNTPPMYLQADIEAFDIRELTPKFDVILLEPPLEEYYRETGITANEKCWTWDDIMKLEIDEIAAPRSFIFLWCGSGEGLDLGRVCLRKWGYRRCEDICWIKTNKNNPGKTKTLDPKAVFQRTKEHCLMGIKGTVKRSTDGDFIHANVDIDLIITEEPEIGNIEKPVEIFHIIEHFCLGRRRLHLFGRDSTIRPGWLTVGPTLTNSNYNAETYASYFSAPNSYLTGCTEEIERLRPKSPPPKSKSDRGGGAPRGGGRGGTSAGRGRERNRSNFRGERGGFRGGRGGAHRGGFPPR
SMILES,IC50 (METTL3/METTL14; Table 4),other results
CN1CCC(N(CCCNc2ccccn2)C(=O)[C@H]2O[C@@H](n3cc(-c4ccn(C)n4)c4c(N)ncnc43)[C@H](O)[C@@H]2O)CC1 [Compound I-153],≥ 1000 nM,IC50 (PRMT5-MEP50; Table 4): 10 to 100 nM
Cn1ccc(-c2cn([C@@H]3O[C@H](C(=O)NCC4CCN(CC(F)F)CC4)[C@@H](O)[C@H]3O)c3ncnc(N)c23)n1 [Compound I-23],–,IC50 (METTL3/METTL14; Table 3): ≥ 1000 nM; IC50 (PRMT5-MEP50; Table 3): 100 to 1000 nM
Cn1ccc(-c2cn([C@@H]3O[C@H](C(=O)N(CCCO)C4CCNCC4)[C@@H](O)[C@H]3O)c3ncnc(N)c23)n1 [Compound I-8],–,IC50 (METTL3/METTL14; Table 3): 100 to 1000 nM; IC50 (PRMT5-MEP50; Table 3): < 10 nM
"Cn1ccc(-c2cn([C@@H]3O[C@H](C(=O)NC4CCNCC4)[C@@H](O)[C@H]3O)c3ncnc(N)c23)n1 [Compound I-1, (2S,3S,4R,5R)-5-[4-amino-5-(1-methyl-1H-pyrazol-3-yl)-7H-pyrrolo[2,3-d]pyrimidin-7-yl]-3,4-dihydroxy-N-(piperidin-4-yl)oxolane-2-carboxamide]",–,IC50 (METTL3/METTL14; Table 3): ≥ 1000 nM; IC50 (PRMT5-MEP50; Table 3): ≥ 1000 nM
Nc1ncnc2c1c(-n1cccn1)cn2[C@H]1C[C@H](O)[C@@H](C(=O)Nc2ccc3ccc(N4CCC4)nc3c2)O1 [Compound I-13],–,IC50 (METTL3/METTL14; Table 3): < 10 nM; IC50 (PRMT5-MEP50; Table 3): ≥ 1000 nM
COCCCN(C)C(=O)[C@H]1O[C@@H](n2cc(-c3ccn(C)n3)c3c(N)ncnc32)[C@H](O)[C@@H]1O [Compound I-5],–,IC50 (METTL3/METTL14; Table 3): ≥ 1000 nM; IC50 (PRMT5-MEP50; Table 3): ≥ 1000 nM
Cn1ccc(-c2cn([C@@H]3O[C@H](C(=O)NCCN4CCNC4=O)[C@@H](O)[C@H]3O)c3ncnc(N)c23)n1 [Compound I-64],≥ 1000 nM,–
Cn1ccc(-c2cn([C@@H]3O[C@H](C(=O)Nc4cccc(C(F)(F)F)c4)[C@@H](O)[C@H]3O)c3ncnc(N)c23)n1 [Compound I-76],≥ 1000 nM,–
Cc1ccc(C(N)=O)cc1NC(=O)[C@H]1O[C@@H](n2cc(-c3ccn(C)n3)c3c(N)ncnc32)[C@H](O)[C@@H]1O [Compound I-92],≥ 1000 nM,–
Cc1cc(NC(=O)[C@H]2O[C@@H](n3cc(-c4ccn(C)n4)c4c(N)ncnc43)[C@H](O)[C@@H]2O)n(C)n1 [Compound I-86],≥ 1000 nM,–
Cn1ccc(-c2cn([C@@H]3O[C@H](C(=O)NCC4CCOC4)[C@@H](O)[C@H]3O)c3ncnc(N)c23)n1 (some centres unmarked) [Compound I-89],≥ 1000 nM,–
CC(C)OCCNC(=O)[C@H]1O[C@@H](n2cc(-c3ccn(C)n3)c3c(N)ncnc32)[C@H](O)[C@@H]1O [Compound I-73],≥ 1000 nM,–
Cn1ccc(-c2cn([C@@H]3O[C@H](C(=O)NCc4ccc(OC(F)(F)F)cc4)[C@@H](O)[C@H]3O)c3ncnc(N)c23)n1 [Compound I-84],≥ 1000 nM,–
Cn1ccc(-c2cn([C@@H]3O[C@H](C(=O)N[C@@H](CO)c4ccccc4)[C@@H](O)[C@H]3O)c3ncnc(N)c23)n1 [Compound I-88],≥ 1000 nM,–
Cn1ccc(-c2cn([C@@H]3O[C@H](C(=O)NC(Cc4ccccc4)c4ccccc4)[C@@H](O)[C@H]3O)c3ncnc(N)c23)n1 (some centres unmarked) [Compound I-115],100 to 1000 nM,–
Cn1ccc(-c2cn([C@@H]3O[C@H](C(=O)Nc4cccc5cnccc45)[C@@H](O)[C@H]3O)c3ncnc(N)c23)n1 [Compound I-69],≥ 1000 nM,–
COCC(C)NC(=O)[C@H]1O[C@@H](n2cc(-c3ccn(C)n3)c3c(N)ncnc32)[C@H](O)[C@@H]1O (some centres unmarked) [Compound I-80],≥ 1000 nM,–
CC(C)c1nnc(NC(=O)[C@H]2O[C@@H](n3cc(-c4ccn(C)n4)c4c(N)ncnc43)[C@H](O)[C@@H]2O)s1 [Compound I-70],≥ 1000 nM,–
Cn1ccc(-c2cn([C@@H]3O[C@H](C(=O)Nc4ccc5ccccc5n4)[C@@H](O)[C@H]3O)c3ncnc(N)c23)n1 [Compound I-66],≥ 1000 nM,–
Cn1ccc(-c2cn([C@@H]3O[C@H](C(=O)NCCc4ccc(C(F)(F)F)cc4)[C@@H](O)[C@H]3O)c3ncnc(N)c23)n1 [Compound I-108],100 to 1000 nM,–
Cn1ccc(-c2cn([C@@H]3O[C@H](C(=O)Nc4ccc5c(c4)OCCCO5)[C@@H](O)[C@H]3O)c3ncnc(N)c23)n1 [Compound I-124],100 to 1000 nM,–
Cn1ccc(-c2cn([C@@H]3O[C@H](C(=O)Nc4cccc5nsnc45)[C@@H](O)[C@H]3O)c3ncnc(N)c23)n1 [Compound I-118],100 to 1000 nM,–
Nc1ncnc2c1c(-n1cccn1)cn2[C@@H]1C[C@H](C(=O)Nc2ccc3ccc(N4CCC4)nc3c2)[C@@H](O)C1 [Compound I-14],–,IC50 (METTL3/METTL14; Table 3): 10 to 100 nM
Cn1ccc(-c2cn([C@@H]3O[C@H](C(=O)NCCc4ccc(-c5ccccc5)cc4)[C@@H](O)[C@H]3O)c3ncnc(N)c23)n1 [Compound I-116],100 to 1000 nM,–
Cc1ccc(NC(=O)[C@H]2O[C@@H](n3cc(-c4ccn(C)n4)c4c(N)ncnc43)[C@H](O)[C@@H]2O)cc1Cl [Compound I-71],≥ 1000 nM,–
Cn1ccc(-c2cn([C@@H]3O[C@H](C(=O)Nc4ccc(OC(F)F)cc4)[C@@H](O)[C@H]3O)c3ncnc(N)c23)n1 [Compound I-132],100 to 1000 nM,–
Cn1ccc(-c2cn([C@@H]3O[C@H](C(=O)NCCCN4CCCC4=O)[C@@H](O)[C@H]3O)c3ncnc(N)c23)n1 [Compound I-129],100 to 1000 nM,–

# The next lines start with results.
IC50 (METTL3/METTL14; Table 4),SMILES,other results
100 to 1000 nM,CN1CCC(N(C[C@H]2CCNC2)C(=O)[C@H]2O[C@@H](n3cc(-c4ccn(C)n4)c4c(N)ncnc43)[C@H](O)[C@@H]2O)CC1 [Compound I-154],IC50 (PRMT5-MEP50; Table 4): 100 to 1000 nM
100 to 1000 nM,Cn1ccc(-c2cn([C@@H]3O[C@H](C(=O)NC4CCN5CCCC5C4)[C@@H](O)[C@H]3O)c3ncnc(N)c23)n1 (some centres unmarked) [Compound I-206],IC50 (PRMT5-MEP50; Table 4): 100 to 1000 nM
100 to 1000 nM,Cn1ccc(-c2cn([C@@H]3O[C@H](C(=O)NC4CCN(C(=O)OCc5ccccc5)CC4)[C@@H](O)[C@H]3O)c3ncnc(N)c23)n1 [Compound I-225],IC50 (PRMT5-MEP50; Table 4): 100 to 1000 nM
100 to 1000 nM,Cn1ccc(-c2cn([C@@H]3O[C@H](C(=O)NC4CCn5ccnc5C4)[C@@H](O)[C@H]3O)c3ncnc(N)c23)n1 (some centres unmarked) [Compound I-207],IC50 (PRMT5-MEP50; Table 4): 100 to 1000 nM
100 to 1000 nM,"CN(C)CCCN(C(=O)[C@H]1O[C@@H](n2cc(-c3ccn(C)n3)c3c(N)ncnc32)[C@H](O)[C@@H]1O)C1CCN(C)CC1 [Compound I-51, (2S,3S,4R,5R)-5-[4-amino-5-(1-methyl-1H-pyrazol-3-yl)-7H-pyrrolo[2,3-d]pyrimidin-7-yl]-N-[3-(dimethylamino)propyl]-3,4-dihydroxy-N-(1-methylpiperidin-4-yl)oxolane-2-carboxamide]",IC50 (PRMT5-MEP50; Table 4): 100 to 1000 nM
100 to 1000 nM,CC(CNC(=O)[C@H]1O[C@@H](n2cc(-c3ccn(C)n3)c3c(N)ncnc32)[C@H](O)[C@@H]1O)c1ccccc1 (some centres unmarked) [Compound I-101],–
100 to 1000 nM,Cn1ccc(-c2cn([C@@H]3O[C@H](C(=O)NCCc4ccc(Cl)cc4)[C@@H](O)[C@H]3O)c3ncnc(N)c23)n1 [Compound I-111],–
100 to 1000 nM,Cn1ccc(-c2cn([C@@H]3O[C@H](C(=O)NCCc4ccncc4)[C@@H](O)[C@H]3O)c3ncnc(N)c23)n1 [Compound I-112],–
100 to 1000 nM,Cn1ccc(-c2cn([C@@H]3O[C@H](C(=O)Nc4ccc(-c5ccccc5)cc4)[C@@H](O)[C@H]3O)c3ncnc(N)c23)n1 [Compound I-98],–
100 to 1000 nM,Cn1ccc(-c2cn([C@@H]3O[C@H](C(=O)Nc4ccc5nsnc5c4)[C@@H](O)[C@H]3O)c3ncnc(N)c23)n1 [Compound I-94],–
100 to 1000 nM,Cc1cc(F)ccc1NC(=O)[C@H]1O[C@@H](n2cc(-c3ccn(C)n3)c3c(N)ncnc32)[C@H](O)[C@@H]1O [Compound I-117],–
100 to 1000 nM,Cn1ccc(-c2cn([C@@H]3O[C@H](C(=O)NCc4ccccc4-n4cccn4)[C@@H](O)[C@H]3O)c3ncnc(N)c23)n1 [Compound I-121],–
